Columns and labels:
atherosclerotic plaque = type: in vivo, New Zealand White rabbit
Procedure: Twenty-two New Zealand White (NZW) rabbits of both sexes and weighing 2-3 kg were divided into two groups. The control group consisted of 6 rabbits that were housed and fed commercial rabbit chow (Purina). Sixteen rabbits, the HC group, were fed a standardized, cholesterol-rich diet (rabbit chow mixed to a 1% w/w concentration of cholesterol) from seven weeks until 28 weeks of age. All animals were given water ad libitum.
Tc-99m labeled P215 ([BAT]RALVDTLKFVTQAEGAK.amide) was prepared as described above. Approximately 250-400 μg of peptide was labeled with 140-160 mCi of Tc-99m and prepared in unit doses of 7-8 mCi (12.5-20.0 μg/rabbit; 6-7 μg/kg) in 0.2 mL volume doses. Adult rabbits were dosed with Tc-99m labeled peptide intravenously in a lateral ear vein by slow bolus infusion (approximately 0.1 mL/min). A gamma camera fitted with a pin-hole collimator (5 mm aperture) and energy window set for Tc-99m and programmed to accumulate 500,000 counts or scan for a desired time. Shortly before imaging, animals were anesthetized with a mixture of ketamine and xylazine (5:1, 1 mL/kg intramuscularly).
Gamma camera images were collected at 40-45° just above the heart (left anterior oblique [LAO] view) to delineate the aortic arch and view the descending aorta. Images were acquired at 1 and 2 h and occasionally at 3 and 5 h after injection. Supplementary anesthesia was injected as needed prior to each image collection.
At 2.5 h (after a 2 h scan), animals were sacrificed with an intravenous dose of sodium pentobarbital. Upon necropsy, the aorta was removed and branching vessels dissected free from the aortic valve to the mid-abdominal region. Using a parallel hole collimator, the aorta was imaged ex corpora. Next, the aortae were opened longitudinally and stained with Sudan IV, thereby turning atherosclerotic plaque a deep red brick color. Lipid-free and uninjured aortic endothelium retains its normal, glistening white-pink appearance under these conditions.

[1] = tested on: deep vein thrombus (femoral vein, embolization coil); experiment: In vivo imaging of deep vein thrombosis in a canine model; design: species or system dog
Text: Mongrel dogs (25-35 lb., fasted overnight) were sedated with a combination of ketamine and aceprozamine intramuscularly and then anesthetized with sodium pentobarbital intravenously. An 18-gauge angiocath was inserted in the distal half of the right femoral vein and an 8 mm Dacron®-entwinedstainless steel embolization coil (Cook Co., Bloomington Ind.) was placed in the femoral vein at approximately mid-femur in each animal. The catheter was removed, the wound sutured and the placement of the coil documented by X-ray. The animals were then allowed to recover overnight.
One day following coil placement, each animal was re-anesthetized, intravenous saline drips placed in each foreleg and a urinary bladder catheter inserted to collect urine. The animal was placed supine under a gamma camera which was equipped with a low-energy, all purpose collimator and photopeaked for Tc-99m. Images were acquired on a NucLear Mac computer system.
Tc-99m labeled P357 [(CH2 CO--YD.Apc.GDCGGCAcm GCAcm GGC.amide)2 -[BAT-BS]] [185-370 MBq (5-10 mCi) Tc-99m and 0.2-0.4 mg P357] was injected into one foreleg intravenous line at its point of insertion. The second line was maintained for blood collection. Anterior images over the legs were acquired for 500,000 counts or 20 min (whichever was shorter), at approximately 10-20 min, and at approximately 1, 2, 3 and 4 h post-injection. Following the collection of the final image, each animal was deeply anesthetized with pentobarbital. Two blood samples were collected on a cardiac puncture using a heparinized syringe followed by a euthanazing dose of saturated potassium chloride solution administered by intercardiac or bolus intravenous injection. The femoral vein containing the thrombus and samples of thigh muscle were then carefully dissected out. The thrombus was then dissected free of the vessel and placed in a pre-weighed test tube. The thrombus samples were then weighed and counted in a gamma well counter in the Tc-99m channel. Known fractions of the injected doses were counted as well.
Fresh thrombus weight, percent injected dose (%ID)/g in the thrombus and blood obtained just prior to euthanasia and thrombus/blood and thrombus/muscle ratios determined. Thrombus/background ratios were determined by analysis of the counts/pixel measured in regions-of-interest(ROI) drawn over the thrombus and adjacent muscle from computer-stored images.

[2] = Tc-99m labeled, i.v., tissues after final image (about 4 h), average ± SD

## [BAT]RALVDTLKFVTQAEGAK.amide [Compound P215]
Atherosclerotic plaque; HC-fed rabbits, aorta removed at 2.5 h
  Radioactivity accumulation in HC aortae imaged ex corpora: greatest deposition in the region of the aortic arch
Atherosclerotic plaque; HC-treated rabbit aortae
  Correlation of in vivo and ex corpora images with Sudan IV deposition patterns: Positive correlations
Atherosclerotic plaque; Tc-99m labeled
  Imaging of atherosclerotic plaque (uptake): high uptake
Atherosclerotic plaque; control (plaque-free) aortae
  Uptake in normal aortic tissue: minimal uptake
Atherosclerotic plaque; rabbit, in vivo
  Principal clearance pathway: hepatobiliary system
Atherosclerotic plaque; rabbit, in vivo, iv
  Systemic clearance: rapid systemic clearance

## (CH2 CO--YD.Apc.GDCGGCAcm GCAcm GGC.amide)2 -[BAT-BS] [Compound P357]
[1]; Tc-99m labeled, i.v., thrombus dissected after final image (about 4 h), average ± SD
  % ID/g Thrombus: 0.016 ± 0.005 % ID/g
[1]; [2]
  Thrombus/Blood ratio: 5.6 ± 1.4
  Thrombus/Muscle ratio: 17 ± 4.7
[1]; counts/pixel in ROI over thrombus and adjacent muscle from images, Tc-99m labeled, i.v., n = 1
  Thrombus/Background ratio: 2.3
[1]; post-injection
  Time to clearly established localization of thrombus: ≤ 1 h
[1]; post-injection, anterior view over hind legs of one dog (FIG. 4)
  Time of first indications of labeled peptide uptake in images: 23 min
[1]; post-injection, one dog (FIG. 4), persisted until the end of the imaging period
  Time to unequivocal localization in images: ≤ 71 min
[1]; post-injection, with increasing contrast and focal definition
  Persistence of thrombus localization: ~4 h
